Experimental data published in patent publication US10457688B2, “Monocyclic thieno, pyrido, and pyrrolo pyrimidine compounds and methods of use and manufacture of same” (Duquesne University of the Holy Spirit, priority 2015, dated 2019).
Read-outs that look alike come from different tables or passages of the source. Each block holds one compound with its values, some of them ahead of it.

Experiments:
[1] = system: RT16 CHO cells expressing human FRα; details: cited from earlier work
MDA-MB-435 cancer cells = assay: antiproliferative sulforhodamine B assay (SRB assay), MDA-MB-435; format: cell-based; details: Homo sapiens
[2] = system: cellular microtubules in A-10 cells; assay: cellular microtubule depolymerization, cell-based phenotypic assay; details: Rattus norvegicus
[3] = system: PC43-10 CHO cells expressing human RFC; assay: growth inhibition, CHO PC43-10 (human RFC); format: cell-based, Chinese hamster
[4] = system: KB human tumor cells (RFC/FRα/PCFT); assay: growth inhibition, KB tumor cells; format: cell-based
Description: The experiments with the CHO sublines were extended to KB human nasopharengeal carcinoma cells which express highly elevated FRα, along with RFC and PCFT.

[5] = system: R2(VC) CHO cells (transporter-null); assay: growth inhibition, vector control R2(VC) CHO cells; format: cell-based, Chinese hamster; details: Cricetulus griseus, Section IV Table 1
[6] = system: RT16 CHO cells expressing human FRα; assay: growth inhibition, CHO RT16 (FRα); format: cell-based, Chinese hamster
[7] = system: D4 CHO cells expressing FRβ; assay: growth inhibition, CHO D4 (FRβ); format: cell-based, Chinese hamster
[8] = system: R2/PCFT4 CHO cells expressing human PCFT; assay: growth inhibition, CHO R2/PCFT4 (PCFT); format: cell-based, Chinese hamster; details: Section III Table 1
[9] = MDA-MB-435, Section VIII Table 1, read-out: IC50 + SD (MDA-MB-435) cancer cells
[10] = A10, Section VIII Table 1, read-out: EC50 in A-10 cells (Loss of cellular microtubules)
[11] = Homo sapiens, PC43-10, Section III Table 1
[12] = MDA-MB-435, Section VII Table 2, read-out: IC50 ± SD (MDA-MB-435) Tumor cells
[13] = Section VII Table 1, read-out: IC50 ± SD in MDA-435 Cells
[14] = A10, Section VII Table 1, read-out: EC50 for Microtubule Depolymerization in A-10 Cells
[15] = A10, Section VII Table 2, read-out: EC50 in A-10 cells (Tubulin polymerization inhibitory activity)
[16] = Section IV Table 1, +FA, read-out: KB (+FA) IC50
[17] = Section IV Table 1, read-out: KB IC50 (RFC/FRα/PCFT)
[18] = Section IV Table 1, +FA, read-out: RT16 (+FA) IC50
[19] = Section IV Table 1, read-out: RT16 IC50 (FRα)
[20] = MDA-MB-435, read-out: IC50 ± SD (MDA-MB-435) Tumor cells
[21] = read-out: IC50 ± SD in MDA-435 Cells
[22] = A10, read-out: EC50 for Microtubule Depolymerization in A-10 Cells
[23] = A10, read-out: EC50 in A-10 cells (Tubulin polymerization inhibitory activity)
[24] = A10, read-out: EC50 in A-10 cells (Loss of cellular microtubules)

Compound: Nc1nc2[nH]c(CCCc3ccc(C(=O)N[C@@H](CCC(=O)O)C(=O)O)cc3)cc2c(=O)[nH]1 [AGF17]
selectivity for FR transport over RFC [1]: 25 fold

Compound: Cc1nc2ccc(CN(C)c3ccc(C(=O)N[C@@H](CCC(=O)O)C(=O)O)s3)cc2c(=O)[nH]1 [RTX, raltitrexed]
IC50 [5]: > 1000 nM

Compound: CN(Cc1cnc2nc(N)nc(N)c2n1)c1ccc(C(=O)N[C@@H](CCC(=O)O)C(=O)O)cc1 [MTX, methotrexate, reference compound]
IC50 [5]: > 1000 nM

Compound: COc1ccc(N(C)c2nc(C)nc3ccsc23)cc1 [compound 2]
IC50 (MDA-MB-435 cancer cells; [20]): 7 ± 2.7 nM | IC50 (MDA-MB-435 cancer cells; [21]): 7 ± 2.7 nM | EC50 [2, 22]: 27 nM | EC50 [2, 23]: 27 nM

Compound: COc1cccc2cc(N(C)c3ncnc4ccsc34)ccc12 [Compound 11]
IC50 (MDA-MB-435 cancer cells; [20]): 15.7 ± 2.2 nM | IC50 (MDA-MB-435 cancer cells; [21]): 15.7 ± 2.2 nM | EC50 [2, 14]: 61 nM

Compound: COc1ccc(N(C)c2nc(C)nc3sc(C)c(C)c23)cc1 [Compound 8]
IC50 (MDA-MB-435 cancer cells; [9]): 10.7 ± 1 nM | EC50 [2, 10]: 18 nM

Compound: CSc1ccc(Nc2nc(C)nc3sccc23)cc1 [compound 2]
EC50 [2, 24]: > 10000 nM

Compound: CSc1ccc2c(c1)CCCN2c1ncnc2ccsc12 [Compound 8]
IC50 (MDA-MB-435 cancer cells; [12]): 3.8 ± 0.3 nM | IC50 (MDA-MB-435 cancer cells; [13]): 3.8 ± 0.3 nM | EC50 [2, 14]: 22 nM | EC50 [2, 15]: 22 nM

Compound: CSc1ccc(N(C)c2ncnc3ccsc23)cc1 [Compound 6]
IC50 [3, 11]: 207 nM | IC50 (MDA-MB-435 cancer cells; [12]): 28.2 ± 5.5 nM | IC50 (MDA-MB-435 cancer cells; [13]): 28.2 ± 5.5 nM | EC50 [2, 14]: 707 nM | EC50 [2, 15]: 707 nM | IC50 [8]: 8.23 nM

Compound: COc1ccc(N(C)c2nc(C)nc3cc[nH]c23)cc1 [compound 1]
IC50 (MDA-MB-435 cancer cells; [12]): 96.6 ± 5.3 nM | IC50 (MDA-MB-435 cancer cells; [13]): 96.6 nM

Compound: CSc1ccc(N(C)c2nc(C)nc3cc[nH]c23)cc1 [Compound 4]
IC50 ([4]; Homo sapiens, read-out: KB IC50 (FRα/PCFT/RFC)): 6.13 nM | IC50 (MDA-MB-435 cancer cells; MDA-MB-435, read-out: IC50 + SD (MDA-MB-435) cancer cells): 4 ± 0.5 nM | IC50 (MDA-MB-435 cancer cells; [20]): 4.4 ± 0.2 nM | IC50 (MDA-MB-435 cancer cells; [21]): 4.4 ± 0.2 nM | IC50 ([6]; Cricetulus griseus, RT16, read-out: R16 IC50 (FRα)): 1.72 nM | IC50 ([7]; Cricetulus griseus, CHO, read-out: D4 IC50 (FRβ)): 6.11 nM | EC50 [2, 22]: 42 nM | EC50 [2, 24]: 10 nM | EC50 [2, 23]: 42 nM

More lines, main results first:

IC50 (MDA-MB-435 cancer cells; [9]): 3.8 nM | EC50 [2, 10]: 2.5 nM
Compound: COc1cccc2cc(N(C)c3nc(C)nc4sccc34)ccc12 [Compound 6]

IC50 ([4]; Homo sapiens, Section III Table 1, read-out: KB IC50 (RFC/FRα/PCFT)): 9.94 nM
Compound: Nc1nc2[nH]cc(CCc3ccc(C(=O)N[C@@H](CCC(=O)O)C(=O)O)cc3)c2c(=O)[nH]1 [PMX, pemetrexed, reference compound]
IC50 [3, 11]: 30.6 nM

IC50 (MDA-MB-435 cancer cells; [12]): 2100 ± 70 nM | IC50 (MDA-MB-435 cancer cells; [13]): 2100 ± 70 nM | EC50 [2, 14]: 25000 nM | EC50 [2, 15]: 25000 nM
Compound: CSc1ccc(Nc2nc(C)nc3cc[nH]c23)cc1 [compound 3]

IC50 [4, 16]: > 1000 nM | IC50 [4, 17]: 14.8 nM
Compound: Nc1nc2[nH]c(CCNc3cccc(C(=O)N[C@@H](CCC(=O)O)C(=O)O)c3)cc2c(=O)[nH]1 [AGF256]
IC50 ([3]; Section IV Table 1): > 1000 nM | IC50 [6, 18]: > 1000 nM | IC50 [6, 19]: 15.9 nM | IC50 ([7]; Section IV Table 1, +FA, read-out: D4 (+FA) IC50): > 1000 nM | IC50 ([7]; Section IV Table 1, read-out: D4 IC50 (FRβ)): 4.19 nM

IC50 [4, 16]: > 1000 nM | IC50 [4, 17]: 13.1 nM
Compound: Nc1nc2[nH]c(CCOc3cccc(C(=O)N[C@@H](CCC(=O)O)C(=O)O)c3)cc2c(=O)[nH]1 [AGF220]
IC50 ([3]; Section IV Table 1): > 1000 nM | IC50 [6, 18]: > 1000 nM | IC50 [6, 19]: 30.3 nM

EC50 [2, 10]: > 10000 nM
Compound: COc1ccc(Nc2nc(C)nc3sc(C)c(C)c23)cc1 [Compound 7]

IC50 (MDA-MB-435 cancer cells; [9]): 34.8 ± 3.7 nM | EC50 [2, 10]: 128 nM
Compound: CSc1ccc(N(C)c2nc(C)nc3sc(C)c(C)c23)cc1 [Compound 9]

EC50 [2, 10]: > 10000 nM
Compound: COc1ccc2c(c1)CCCN2c1nc(C)nc2sc(C)c(C)c12 [Compound 10]

IC50 ([4]; Homo sapiens, Section VI Table 1, read-out: KB IC50 (FRα/PCFT/RFC)): 38.9 nM | IC50 (MDA-MB-435 cancer cells; [12]): 3.4 ± 0.9 nM | IC50 (MDA-MB-435 cancer cells; [13]): 3.4 ± 0.9 nM | EC50 [2, 14]: 8 nM | EC50 [2, 15]: 8 nM
Compound: COc1ccc2c(c1)CCCN2c1nc(C)nc2ccsc12 [Compound 7]

IC50 (MDA-MB-435 cancer cells; [12]): 1.7 ± 0.2 nM | IC50 (MDA-MB-435 cancer cells; [13]): 1.7 ± 0.2 nM | EC50 [2, 14]: 3 nM | EC50 [2, 15]: 3 nM
Compound: COc1cccc2cc(N(C)c3nc(C)nc4ccsc34)ccc12 [Compound 10]

EC50 [2, 10]: 1200 nM
Compound: COc1ccc2c(c1)OCCN2c1nc(C)nc2sc(C)c(C)c12 [Compound 11]

IC50 (MDA-MB-435 cancer cells; [13]): 109 nM | EC50 [2, 14]: 237 nM | EC50 [2, 15]: 237 nM
Compound: COc1ccc2c(c1)OCCN2c1nc(C)nc2ccsc12 [Compound 9]

IC50 (MDA-MB-435 cancer cells; [9]): 7.6 nM | EC50 [2, 10]: 15.4 nM
Compound: COc1ccc(N(C)c2nc(C)nc3sccc23)cc1 [compound 3]
